Experiment [1] concerns anti-Thy 1 glomerulonephritis. The experiment in a line: Glomerular p-Smad2 (Western blot). It counts as in vivo, Sprague Dawley rats. To be noted: enalapril alone. The protocol: These experiments were performed on male Sprague Dawley rats (200-250 g) obtained from the Sasco colony of Charles River Laboratories (Wilmington, Mass., USA). Animal housing and care were in accordance with the NIH Guide for the Care and Use of Laboratory Animals, NIH Publication No. 85-23, 1985. Animals were fed a normal protein diet (22% protein, Teklad No. 86 550, Teklad Premier Laboratory Diets, Madison, Wis., USA). Glomerulonephritis was induced by tail vein injection of 2.25 mg/Kg of the monoclonal anti-Thy 1.1 antibody OX-7 (NCCC, Biovest International Inc, Minneapolis, Minn., USA). OX-7 binds to a Thy 1-like epitope on the surface of mesangial cells causing complement-dependent cell lysis followed by fibrotic tissue repair (Bagchus et al., Lab Invest. 55:680-687 (1986)). Control animals were injected with similar volumes of phosphate-buffered saline (PBS). Groups of 8 rats were assigned and treated as outlined in Table 2. […] Bound antibodies were detected by developing the blot in ECL™ Western blotting detection reagents (Amersham Pharmacia Biotech) for 1 min. Quantitation of the bands on autoradiograms was performed using a BIO-RAD GS-700 imaging densitometer. Changes in p-Smad2 levels were determined by correcting for the densitometric intensity of β-actin for each sample. […] The percent reduction in disease severity in a treated group was calculated as: […]
(In western blotting, separated proteins are transferred to a membrane and probed.)

Experiment [2] deals with anti-Thy 1 glomerulonephritis. The experiment is described as follows: Glomerular production of fibronectin, PAI-1 and TGF-β1 (ELISA of cultured glomeruli). The format is in vivo, Sprague Dawley rats. The settings on record: enalapril alone. As for the experimental part:
Animal housing and care were in accordance with the NIH Guide for the Care and Use of Laboratory Animals, NIH Publication No. 85-23, 1985. Animals were fed a normal protein diet (22% protein, Teklad No. 86 550, Teklad Premier Laboratory Diets, Madison, Wis., USA). Glomerulonephritis was induced by tail vein injection of 2.25 mg/Kg of the monoclonal anti-Thy 1.1 antibody OX-7 (NCCC, Biovest International Inc, Minneapolis, Minn., USA). OX-7 binds to a Thy 1-like epitope on the surface of mesangial cells causing complement-dependent cell lysis followed by fibrotic tissue repair (Bagchus et al., Lab Invest. 55:680-687 (1986)). Control animals were injected with similar volumes of phosphate-buffered saline (PBS). Groups of 8 rats were assigned and treated as outlined in Table 2. Doses of enalapril above […] in drinking water are maximally effective in this model (Peters et al., Kidney Int. 54:1570-1580 (1998)). […] Fibronectin and PAI-1 synthesis were measured with modified ELISA assays according to published methods ([…] al., Anal Biochem 104:205-214 (1980)). TGF-β1 production of cultured glomeruli was measured after acid-activation using a commercially available ELISA kit (DuoSet®, R&D Systems, Minneapolis, Minn., USA) according to the manufacturer's instructions. Three samples from each rat were analyzed. […] The percent reduction in disease severity in a treated group was calculated as: […]
On the technique in general: In an ELISA, binding on a coated surface is turned into a signal by an enzyme label.

Each structure is given as a SMILES string.

As for `CCOC(=O)[C@H](CCc1ccccc1)N[C@@H](C)C(=O)N1CCC[C@H]1C(=O)O` [enalapril], the “reduction of Smad2 activation (p-Smad2)” value in experiment [1] is reported as 36%. Besides, the “reduction of fibronectin production” value in experiment [2] is recorded as 53%.

These data come from US7763580B2, “Methods for treating conditions associated with the accumulation of excess extracellular matrix” (University of Utah Research Foundation, priority 1999, dated 2010).
